Values of other authors as cited in patent US4933445A, “Heteroazabenzobicyclic carboxamide 5-HT3 antagonists” (Rorer Pharmaceutical Corporation, priority 1988, dated 1990).

Test system: 5-HT3 receptor
Details: becomes more prominent at higher doses

Q: With `CCN(CC)CCNC(=O)c1cc(Cl)c(N)cc1OC` [Metoclopramide] as the molecule, how does the 5-HT3-antagonist activity read?
A: Its 5-HT3-antagonist activity is “weak”.
